Assay results reported in the supplement of paper PMC8837787.

Tested on: Saccharomyces cerevisiae ABC16-Green Monster
Test: growth inhibition at single dose (up to 150 µM), below the 70% cut-off for dose-response; higher = more potent
Settings: 18 h; 30 °C; YPD
Outline: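 The entry is percent growth inhibition of drug-sensitive S. cerevisiae ABC16-Green Monster cells. After overnight growth in YPD at 30 °C, cells were diluted to OD600 0.1–0.2 and exposed to each library compound at 150 µM in 200 µl per well, in biological duplicates with untreated cultures beside them, and OD600 was read at 0 h and after 18 h at 30 °C. Any compound under 70% in both replicates was not carried to dose-response.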

Row | Structure (SMILES) | growth inhibition at single dose [%]
1 | O=C(NCCc1ccn(-c2ccccc2)n1)C1CCCCC1 | < 70
2 | COc1ccc(-[n+]2c(C)cn3c2CCc2ccccc2-3)cc1 | < 70
3 | Cc1ccc2cc3c(N)c4c(C)ccc(C)c4nc3nc2c1 | < 70
4 | Cc1nccc(-c2cccc(N/N=C(\C#N)S(=O)(=O)c3ccccn3)c2)n1 | < 70
5 | Cc1nc(-c2ccccn2)nc(N2CCCC2)c1Cl | < 70
6 | Cc1cc(-c2cc(C(=O)N3CCCN(C)c4nc5ccccc5nc43)c3c(C)noc3n2)c(C)s1 | < 70
7 | Cc1cccc(C2CC(=O)c3cnn(-c4nc(C)cc(C)n4)c3C2)c1 (stereo unspecified) | < 70
8 | CCCNC(=O)N1CCC2(CC1)CC(=O)c1cc(C)ccc1O2 | < 70
9 | Oc1ccccc1CN1CCN(C(c2ccccc2)c2ccccc2)CC1 | < 70
10 | OC1CCN(c2nn3cc(-c4ccccc4)nc3s2)CC1 | < 70
11 | CC1Cc2cc(C(=O)CSc3nnc(Cc4cccs4)n3C)ccc2N1S(C)(=O)=O (stereo unspecified) | < 70
12 | O=C(CSc1nccn2nc(-c3ccccc3)cc12)Nc1cc(C(F)(F)F)ccc1Cl | < 70
13 | CNC(=O)C1Cc2c([nH]c3cc(Cl)ccc23)C2(CCN(CCc3ccccc3)CC2)N1 (stereo unspecified) | < 70
14 | N#Cc1nc(-c2ccccc2F)oc1NCCc1ccccc1 | < 70
15 | O=C(CSc1ccc2nnc(-c3cccc(F)c3)n2n1)Nc1ccc2c(c1)OCO2 | < 70
16 | Cc1cc(-c2nc(=O)c3ccccc3[nH]2)c(C)n1CC(C)C | < 70
17 | Cc1cc(NC(=O)c2ccc(S(=O)(=O)N(Cc3ccccc3)C(C)C)cc2)no1 | < 70
18 | Cc1ccc2nc(C)c(-c3ccn(Cc4ccccc4)n3)n2c1 | < 70
19 | CN(C)CCCNCc1ccc(-c2ccc(F)c(Cl)c2)o1 | < 70
20 | CC1Cc2cc(C3=NNC(=NC4CC4)SC3)ccc2N1S(C)(=O)=O (stereo unspecified) | < 70
21 | N#Cc1nc(-c2ccccc2)oc1S(=O)(=O)c1ccc(Cl)cc1 | < 70
22 | Cc1ccc(-c2cnn3c(N4CCCC4)cc(C)nc23)cc1 | < 70
23 | CCOc1ccccc1C(=O)Nc1cccc(-c2nc3ncccn3c2C)c1 | < 70
24 | COc1ccc(OC)c(C(C)Nc2ncnc3sccc23)c1 (stereo unspecified) | < 70

Row | Structure (SMILES) | growth inhibition at single dose [%]
25 | CCN(CC)CCCNc1nc(-c2ccc(Cl)cc2)nc2ccccc12 | < 70
26 | CC(=O)Oc1ccccc1C(=O)Nc1ncc([N+](=O)[O-])s1 | < 70
27 | O=C(N/N=C/c1ccc(O)cc1O)c1ccc[n+]([O-])c1 | < 70
28 | CC(C)n1ncc2cc(C(=O)Nc3nc(-c4ccccn4)cs3)cnc21 | < 70
29 | Cc1cc(C(=O)CSc2nc3ccccc3[nH]2)c(C)n1-c1ccc(F)cc1 | < 70
30 | Cc1nn(Cc2ccccc2)c2sc(C(=O)Nc3nc4ccccc4[nH]3)cc12 | < 70
31 | O=C(NC1CCN(c2nccc(C(F)(F)F)n2)CC1)c1cccs1 | < 70
32 | Nc1ncc(-c2ccc(C(F)(F)F)nc2)cc1-c1ccc(C(F)(F)F)nc1 | < 70
33 | Cc1ccc2nc(Cl)c(CNCc3cccs3)cc2c1 | < 70
34 | CCOC(=O)c1nn(CCc2ccccc2)c2c1CN(C(=O)c1cc(C)n[nH]1)CC2 | < 70
35 | c1coc(CNc2nc(N3CCCCC3)nc3ccccc23)c1 | < 70
36 | CC(=O)c1c(C)[nH]c(C(=O)Nc2ccc3ccccc3n2)c1C | < 70
37 | Clc1ccc(Cl)c(-c2ccc(CNCCN3CCNCC3)o2)c1 | < 70
38 | Cc1cc(C(=O)COC(=O)c2[nH]nc3ccccc23)c(C)n1CC1CCCO1 (stereo unspecified) | < 70
39 | O=C(Nc1ncccc1O)c1ccc(S(=O)(=O)NCc2ccco2)cc1 | < 70
40 | O=C(Nc1nc(-c2ccccn2)cs1)c1ccc(-n2cncn2)cc1 | < 70
41 | O=C(Nc1nc(CN2CCOCC2)cs1)c1ccc(-c2ccc(Cl)cc2)s1 | < 70
42 | CN1CCN(c2nc(Nc3ccc(O)cc3)nc3ccccc23)CC1 | < 70
43 | CN1CCC(c2cc(-c3ccncc3)c(-c3ccc(F)cc3)[nH]2)CC1 | < 70
44 | N#C/C(C(=O)c1ccc([N+](=O)[O-])s1)=C1\Nc2ccccc2S1 | < 70
45 | Cc1cc(N2CCN(C)CC2)n2ncc(-c3ccc(F)cc3)c2n1 | < 70
46 | COc1cccc(/C=C/c2n[nH]c(=O)c(C#N)c2C)c1 | < 70
47 | CCn1nc(C)c(Sc2nccn2C)c1C | < 70
48 | C/N=c1\scc(-c2ccc(OC(F)F)cc2)n1/N=C/c1cccs1 | < 70

Row | Structure (SMILES) | growth inhibition at single dose [%]
49 | Oc1ccc(C2=CCN(c3ncnc4ccccc34)CC2)cc1 | < 70
50 | CN1CCN(c2cc(-c3ccc(F)cc3)nc(-c3ccncc3)n2)CC1 | < 70
51 | CC(C)(C)c1ccc(Oc2ccc(N)cc2)cc1 | < 70
52 | COc1cccc(Cn2nc(C(=O)NC3CC3)c3c2CCN(Cc2cc4c(cc2Cl)OCO4)C3)c1 | < 70
53 | Cc1ccc(C)c(Cn2c(N3CCC(C(=O)NCc4cccs4)CC3)nc3ccccc32)c1 | < 70
54 | CC(C)c1ncc(-c2ccncc2)c([C@H]2CC[C@H](CNC(=O)c3cccnc3)CC2)n1 | < 70
55 | COCC(C)n1c(C)cc(C(=O)COC(=O)c2cccn2C)c1C (stereo unspecified) | < 70
56 | CN1CCN(c2c3c(c(C#N)c4nc5ccccc5n24)CCC3)CC1 | < 70
57 | Cc1ccc2oc(-c3cc(NC(=O)Cc4ccccc4)ccc3Cl)nc2c1 | < 70
58 | CC(C)CCNCC(O)Cn1c2ccccc2c2ccccc21 (stereo unspecified) | < 70
59 | COc1ccc(C(=N)N)cc1-c1cn(-c2ccc(C(=N)N)cc2)nn1 | < 70
60 | Cc1ccccc1C(=O)OCC(=O)c1cc(C)n(Cc2ccco2)c1C | < 70
61 | Cc1cc(=O)n2nc(-c3ccc(C(C)(C)C)cc3)cc2[nH]1 | < 70
62 | Cc1cc(O)nc(-n2nc(C)cc2C)n1 | < 70
63 | CCc1ccc(CNCC(O)c2ccccc2)cc1 (stereo unspecified) | < 70
64 | c1ccc(Oc2ccc(-c3cncc(-c4ccc5[nH]ccc5c4)n3)cc2)cc1 | < 70
65 | Cn1nnnc1SCC(=O)Nc1ccc(C(=O)Nc2ncccc2O)cc1 | < 70
66 | O=C(CSc1nnc(/C=C/c2ccc(F)cc2)[nH]1)N(c1ccccc1)C1CCCCC1 | < 70
67 | CCn1nc(C(=O)NCc2ccc(OC)cc2)c2c1CCN(C(=O)C1Cc3ccccc3O1)C2 (stereo unspecified) | < 70
68 | CCCCCn1c(=N)n(CC(O)COc2cccc(C)c2)c2ccccc21 (stereo unspecified) | < 70
69 | CCCN(CCC)CC(O)COc1ccccc1C(=O)Nc1ccccc1 (stereo unspecified) | < 70
70 | CCOc1ccc(-c2nc(CC(=O)NCc3ccnc(OC)c3)cs2)cc1 | < 70
71 | Cc1cc(C(=O)COC(=O)c2ccccc2O)c(C)n1CC1CCCO1 (stereo unspecified) | < 70
72 | Cc1nnc(NCc2cccc(Cl)c2)c2ccccc12 | < 70

Row | Structure (SMILES) | growth inhibition at single dose [%]
73 | Nc1c(C(=O)N2CCOCC2)sc2nc3c(cc12)CCCCC3 | < 70
74 | Fc1ccc2[nH]c3c(NCCCN4CCOCC4)ncnc3c2c1 | < 70
75 | O=C(NCc1ccccc1)/C(=C/c1ccc(OCc2ccccc2)cc1)c1nc2ccccc2[nH]1 | < 70
76 | CNCCCNc1ccnc2cc(Cl)ccc12 | < 70
77 | CCC(O)c1ccc(Br)cc1NC(=O)c1cccc(Cl)c1 (stereo unspecified) | < 70
78 | CC(C)(C)c1cc(C(=O)Nc2cccnc2)cc(C(=O)Nc2cccnc2)c1 | < 70
79 | Cc1ccc(S(=O)(=O)c2c(COC(=O)c3cccc(C)c3)c(-c3ccccc3)nn2C)cc1 | < 70
80 | O=C(Nc1ccccc1O)c1ccc(Cn2ccnc2)cc1 | < 70
81 | COc1ccc(S(=O)(=O)N2CCSc3cc(Cl)ccc32)cc1 | < 70
82 | Cn1cc(/C=C/C(=O)Nc2ncc(Cc3ccccc3)s2)cn1 | < 70
83 | Cc1cc(C)c2cc(C(=O)NC3CCCCCCC3)[nH]c2c1 | < 70
84 | CC(C)n1ncc2c(C(=O)NCC(c3cccs3)N3CCOCC3)cc(-c3ccccc3)nc21 (stereo unspecified) | < 70
85 | COCCn1c(C)nc2ccccc2c1=O | < 70
86 | Nc1nc2ccc(-c3cncc(Oc4ccc(F)cc4)c3)cc2[nH]1 | < 70
87 | CCOC(=O)c1c(NC(=O)Cn2ncc(Cl)c(Cl)c2=O)sc(C(=O)NC)c1C | < 70
88 | O=C(Cn1ncc(Cl)c(Cl)c1=O)NCC(=O)Nc1ccc(F)c(F)c1F | < 70
89 | COc1cccc(-c2csc(-c3nnc4n3-c3ccccc3SC4)n2)c1 | < 70
90 | CS(=O)(=O)N1CCC(CCn2nc(Cc3cccc4ccccc34)c3c(N)ncnc32)CC1 | < 70
91 | Nc1ncc(-c2cn[nH]c2)cc1-c1nc2cc(Cl)cnc2[nH]1 | < 70
92 | COc1cccc(-c2nc3c(N4CCCC4)cccc3n2CC2CCCN2)n1 (stereo unspecified) | < 70
93 | CCN(CC)C(=O)N1CCN(C)CC1 | < 70
94 | CN(C)Cc1ccc(CNc2ncnc3scc(-c4ccccc4)c23)cc1 | < 70
95 | CCOc1cccc(C(=O)Nc2ccc(-c3nc4ccccc4[nH]3)cc2)c1 | < 70
96 | CCOC(=O)c1c[nH]c2cc(Cl)cc(Cl)c2c1=O | < 70
